Target: T1, papain (Carica papaya, UniProt P00784)
T1 construct: purchased Sigma Chem. Co
T1 sequence (P00784 134-345): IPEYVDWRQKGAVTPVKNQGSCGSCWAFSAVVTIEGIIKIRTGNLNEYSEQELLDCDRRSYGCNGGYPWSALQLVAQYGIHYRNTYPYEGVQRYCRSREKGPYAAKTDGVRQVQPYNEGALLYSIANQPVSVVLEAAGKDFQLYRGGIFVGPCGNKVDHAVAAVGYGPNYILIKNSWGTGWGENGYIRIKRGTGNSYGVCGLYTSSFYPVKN
Assay: Papain inhibitory activity (milk casein digestion)
Type: biochemical
Conditions: papain 80 μg/ml 0.5 ml, cysteine, pH 6.8, 1% milk casein, 40° C., 10 minutes
Description: Papain inhibitory activity of the compounds of this invention was assayed as follows: To 0.5 ml of a solution of papain (80 μg/ml, Sigma Chem. Co., 2x cry.), were added 0.25 ml of 40 mM cysteine dissolved in 20 mM disodium ethylenediamine tetraacetic acid solution adjusted pH to 6.8 with sodium hydroxide and 0.25 ml of 33 mM phosphate buffer (pH 6.8) with or without inhibitor. After incubation at 40° C. for 15 minutes, the resulting mixture was added to 5 ml of 1% milk casein solution in the same buffer as described above, and further incubated at 40° C. for 10 minutes. Then the mixture was mixed with 5 ml of 0.44 M trichloroacetic acid solution and followed by filtration with a sheet of Toyo filter paper No. 4. The extinction of the filtrate was read at 280 nm. The percent inhibition was calculated from the formula, 100 x (B-A)/B; wherein B stands for the absorbance without inhibitor and A for the absorbance with inhibitor. The compound Nos. in Table 1 are as defined in Examples as described hereinafter.

Row | Structure (SMILES) | ID50 (amount of inhibitor for 50% inhibition)
1 | Cc1ccccc1COC(=O)[C@@H]1O[C@H]1C(=O)OCc1ccccc1C (relative stereo) [EP-91, di-o-methylbenzyl epoxysuccinate] | 0.35 γ
2 | Cc1ccccc1COC(=O)[C@@H]1O[C@H]1C(=O)O (relative stereo) [EP-92, o-methylbenzyl potassium epoxysuccinate] | 0.10 γ
3 | Cc1cc(C)cc(COC(=O)[C@@H]2O[C@H]2C(=O)OCc2cc(C)cc(C)c2)c1 (relative stereo) [EP-93, di-3',5'-dimethylbenzyl epoxysuccinate] | 4.31 γ
4 | Cc1cc(C)cc(COC(=O)[C@@H]2O[C@H]2C(=O)O)c1 (relative stereo) [EP-94, 3',5'-dimethylbenzyl potassium epoxysuccinate] | 0.27 γ
5 | Cc1cc(C)c(COC(=O)[C@@H]2O[C@H]2C(=O)OCc2c(C)cc(C)cc2C)c(C)c1 (relative stereo) [EP-95, di-2',4',6'-trimethylbenzyl epoxysuccinate] | 4.20 γ
6 | Cc1cc(C)c(COC(=O)[C@@H]2O[C@H]2C(=O)O)c(C)c1 (relative stereo) [EP-96, 2',4',6'-trimethylbenzyl potassium epoxysuccinate] | 0.37 γ
7 | Cc1cccc(COC(=O)[C@@H]2O[C@H]2C(=O)OCc2cccc(C)c2Br)c1Br (relative stereo) [EP-97, di-2'-bromo-3'-methylbenzyl epoxysuccinate] | 3.20 γ
8 | Cc1cccc(COC(=O)[C@@H]2O[C@H]2C(=O)O)c1Br (relative stereo) [EP-98, 2'-bromo-3'-methylbenzyl potassium epoxysuccinate] | 0.32 γ
9 | O=C(OCc1cccc(C(F)(F)F)c1)[C@@H]1O[C@H]1C(=O)OCc1cccc(C(F)(F)F)c1 (relative stereo) [EP-99, di-3'-trifluoromethylbenzyl epoxysuccinate] | 0.50 γ
10 | O=C(O)[C@@H]1O[C@H]1C(=O)OCc1cccc(C(F)(F)F)c1 (relative stereo) [EP-100, 3'-trifluoromethylbenzyl potassium epoxysuccinate] | 0.10 γ
11 | COc1ccc(COC(=O)[C@@H]2O[C@H]2C(=O)OCc2ccc(OC)cc2)cc1 (relative stereo) [EP-101, di-p-methoxybenzyl epoxysuccinate] | 1.51 γ
12 | O=C(OCc1ccc2c(c1)OCO2)[C@@H]1O[C@H]1C(=O)OCc1ccc2c(c1)OCO2 (relative stereo) [EP-103, di-methylene-3',4'-dioxybenzyl epoxysuccinate] | 1.06 γ
13 | O=C(O)[C@@H]1O[C@H]1C(=O)OCc1ccc2c(c1)OCO2 (relative stereo) [EP-104, methylene-3',4'-dioxybenzyl potassium epoxysuccinate] | 0.36 γ
14 | O=C(OCc1ccccc1I)[C@@H]1O[C@H]1C(=O)OCc1ccccc1I (relative stereo) [EP-105, di-o-iodobenzyl epoxysuccinate] | 0.40 γ
15 | O=C(O)[C@H]1O[C@@H]1C(=O)OCc1ccccc1I (relative stereo) [EP-106, o-iodobenzyl potassium epoxysuccinate] | 0.14 γ
16 | O=C(OCc1ccccc1Cl)[C@@H]1O[C@H]1C(=O)OCc1ccccc1Cl (relative stereo) [EP-107, di-o-chlorobenzyl epoxysuccinate] | 0.15 γ
17 | O=C(O)[C@H]1O[C@@H]1C(=O)OCc1ccccc1Cl (relative stereo) [EP-108, o-chlorobenzyl potassium epoxysuccinate] | 0.09 γ
18 | O=C(OCc1cccc(Cl)c1)[C@@H]1O[C@H]1C(=O)OCc1cccc(Cl)c1 (relative stereo) [EP-109, di-m-chlorobenzyl epoxysuccinate] | 0.50 γ
19 | O=C(O)[C@H]1O[C@@H]1C(=O)OCc1cccc(Cl)c1 (relative stereo) [EP-110, m-chlorobenzyl potassium epoxysuccinate] | 0.24 γ
20 | O=C(OCc1ccc(I)cc1)[C@@H]1O[C@H]1C(=O)OCc1ccc(I)cc1 (relative stereo) [EP-111, di-p-iodobenzyl epoxysuccinate] | 2.91 γ

Row | Structure (SMILES) | ID50 (amount of inhibitor for 50% inhibition)
21 | O=C(O)[C@H]1O[C@@H]1C(=O)OCc1ccc(I)cc1 (relative stereo) [EP-112, p-iodobenzyl potassium epoxysuccinate] | 0.32 γ
22 | O=C(OCc1ccc(Br)cc1)[C@@H]1O[C@H]1C(=O)OCc1ccc(Br)cc1 (relative stereo) [EP-113, di-p-bromobenzyl epoxysuccinate] | 0.99 γ
23 | O=C(O)[C@H]1O[C@@H]1C(=O)OCc1ccc(Br)cc1 (relative stereo) [EP-114, p-bromobenzyl potassium epoxysuccinate] | 0.26 γ
24 | O=C(OCc1ccc(Cl)cc1)[C@@H]1O[C@H]1C(=O)OCc1ccc(Cl)cc1 (relative stereo) [EP-115, di-p-chlorobenzyl epoxysuccinate] | 1.20 γ
25 | O=C(OCc1ccc(Cl)cc1Cl)[C@H]1O[C@@H]1C(=O)OCc1ccc(Cl)cc1Cl (relative stereo) [EP-117, di-2',4'-dichlorobenzyl epoxysuccinate] | 2.55 γ
26 | O=C(O)[C@H]1O[C@@H]1C(=O)OCc1ccc(Cl)cc1Cl (relative stereo) [EP-118, 2',4'-dichlorobenzyl potassium epoxysuccinate] | 0.11 γ
27 | O=C(OCc1ccc(I)cc1Br)[C@H]1O[C@@H]1C(=O)OCc1ccc(I)cc1Br (relative stereo) [EP-119, di-2'-bromo-4'-iodobenzyl epoxysuccinate] | 3.00 γ
28 | O=C(O)[C@H]1O[C@@H]1C(=O)OCc1ccc(I)cc1Br (relative stereo) [EP-120, 2'-bromo-4'-iodobenzyl potassium epoxysuccinate] | 0.40 γ
29 | O=C(O)[C@H]1O[C@@H]1C(=O)OCc1cccc(F)c1 (relative stereo) [EP-122, m-fluorobenzyl potassium epoxysuccinate] | 0.10 γ
30 | O=C(OCc1ccccc1F)[C@H]1O[C@@H]1C(=O)OCc1ccccc1F (relative stereo) [EP-123, di-o-fluorobenzyl epoxysuccinate] | 0.30 γ
31 | O=C(O)[C@H]1O[C@@H]1C(=O)OCc1ccccc1F (relative stereo) [EP-124, o-fluorobenzyl potassium epoxysuccinate] | 0.10 γ
32 | O=C(OCc1ccc(Br)c(Cl)c1)[C@H]1O[C@@H]1C(=O)OCc1ccc(Br)c(Cl)c1 (relative stereo) [EP-125, di-3'-chloro-4'-bromobenzyl epoxysuccinate] | 2.90 γ
33 | O=C(O)[C@H]1O[C@@H]1C(=O)OCc1ccc(Br)c(Cl)c1 (relative stereo) [EP-126, 3'-chloro-4'-bromobenzyl potassium epoxysuccinate] | 0.12 γ
34 | O=C(OCc1cc(Cl)ccc1Cl)[C@H]1O[C@@H]1C(=O)OCc1cc(Cl)ccc1Cl (relative stereo) [EP-127, di-2',5'-dichlorobenzyl epoxysuccinate] | 2.00 γ
35 | O=C(O)[C@H]1O[C@@H]1C(=O)OCc1cc(Cl)ccc1Cl (relative stereo) [EP-128, 2',5'-dichlorobenzyl potassium epoxysuccinate] | 0.11 γ
36 | O=C(OCCc1ccccc1)[C@H]1O[C@@H]1C(=O)OCCc1ccccc1 (relative stereo) [EP-129, di-2'-phenylethyl epoxysuccinate] | 0.78 γ
37 | O=C(O)[C@H]1O[C@@H]1C(=O)OCCc1ccccc1 (relative stereo) [EP-130, 2'-phenylethyl potassium epoxysuccinate] | 0.10 γ
38 | O=C(O)[C@H]1O[C@@H]1C(=O)OCCCc1ccccc1 (relative stereo) [EP-132, 3'-phenylpropyl potassium epoxysuccinate] | 0.17 γ
39 | O=C(OCC=Cc1ccccc1)[C@H]1O[C@@H]1C(=O)OCC=Cc1ccccc1 (relative stereo) [EP-133, di-3'-phenyl-2'-propenyl epoxysuccinate] | 2.81 γ
